In patent publication US6881741B2 (ViroChem Pharma Inc., priority 2001, dated 2005):
Where two headings read alike, the source gives them in different places.

Target: recombinant HCV NS5B (HCV RNA-dependent RNA polymerase) (Hepatitis C virus genotype 1b, UniProt P26663)
Test: biochemical
[1] = HCV polymerase activity, list of compounds of Example 27, read-out: IC50 (polymerase activity)
[2] = related polymerase activity (Example 27 list), read-out: IC50

Sequence of recombinant HCV NS5B (HCV RNA-dependent RNA polymerase) (P26663 2420-3010 limits assumed): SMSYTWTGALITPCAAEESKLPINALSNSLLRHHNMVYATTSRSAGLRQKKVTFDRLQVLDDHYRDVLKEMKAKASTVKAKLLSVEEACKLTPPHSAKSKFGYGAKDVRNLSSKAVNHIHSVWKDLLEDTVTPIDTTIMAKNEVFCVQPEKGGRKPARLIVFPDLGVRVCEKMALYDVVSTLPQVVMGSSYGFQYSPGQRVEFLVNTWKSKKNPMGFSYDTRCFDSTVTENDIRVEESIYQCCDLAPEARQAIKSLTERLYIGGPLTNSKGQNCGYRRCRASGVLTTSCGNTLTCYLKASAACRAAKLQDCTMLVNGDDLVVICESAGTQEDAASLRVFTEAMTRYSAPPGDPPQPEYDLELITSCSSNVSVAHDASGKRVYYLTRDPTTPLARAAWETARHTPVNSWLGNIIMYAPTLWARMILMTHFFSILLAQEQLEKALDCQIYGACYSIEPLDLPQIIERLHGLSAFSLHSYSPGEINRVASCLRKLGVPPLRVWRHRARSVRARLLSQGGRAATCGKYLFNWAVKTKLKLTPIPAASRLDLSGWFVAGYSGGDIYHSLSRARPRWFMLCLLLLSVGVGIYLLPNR

Compound | IC50 [1] [µM] | IC50 [2] [µM]
COc1cccc(CN(C(=O)C2CCC2)c2cc(-c3ccccc3)sc2C(=O)O)c1 [Compound 473, 3-[CYCLOBUTANECARBONYL-(3- METHOXY-BENZYL)-AMINO]-5-PHENYL- THIOPHENE-2-CARBOXYLIC ACID] | 5 to 20 | –
Cc1ccc(C(=O)N(C)c2cc(-c3ccccc3)sc2C(=O)O)cc1[N+](=O)[O-] [Compound 257, 3-[METHYL-(4-METHYL-3-NITRO-BENZOYL)-AMINO]-5-PHENYL-THIOPHENE-2-CARBOXYLIC ACID] | – | 5 to 20
CC(C)N(c1cc(-c2ccc(-c3ccc(Cl)cc3)cc2)sc1C(=O)O)C(=O)[C@H]1CC[C@H](C)CC1 [Compound 571, 5-(4′-CHLORO-BIPHENYL-4-YL)-3- [ISOPROPYL-(4-METHYL- CYCLOHEXANECARBONYL)-AMINO]- THIOPHENE-2-CARBOXYLIC ACID] | < 5 | –
NC1CCC(N(C(=O)c2ccc(Cl)cc2Cl)c2cc(-c3ccccc3)sc2C(=O)O)CC1 (centres unmarked) [Compound 528, 4-[(2-CARBOXY-5-PHENYL-THIOPHEN-3- YL(-(2,4-DICHLORO-BENZOYL)-AMINO]- CYCLOHEXYL-AMMONIUM; TRIFLUORO- ACETATE] | < 5 | –
Cc1ccccc1S(=O)(=O)Nc1cc(-c2ccc(O)cc2)sc1C(=O)O [Compound 190, 5-(4-HYDROXY-PHENYL)-3-(TOLUENE-2-SULFONYLAMINO)-THIOPHENE-2-CARBOXYLIC ACID] | – | < 5
O=C(O)c1sc(-c2ccccc2)cc1NS(=O)(=O)c1ccc(C(F)(F)F)cc1 [Compound 52, 5-PHENYL-3-(4-TRIFLUOROMETHYL-BENZENESULFONYLAMINO)-THIOPHENE-2-CARBOXYLIC ACID] | – | < 5
Cc1ccccc1S(=O)(=O)Nc1cc(-c2ccccn2)sc1C(=O)O [Compound 128, 5-PYRIDIN-2-YL-3-(TOLUENE-2-SULFONYLAMINO)-THIOPHENE-2-CARBOXYLIC ACID] | – | < 5
Cc1ccc(C(=O)N(CCO)c2cc(-c3ccccc3)sc2C(=O)O)cc1 [Compound 203, 3-[(2-HYDROXY-ETHYL)-(4-METHYL-BENZOYL)-AMINO]-5-PHENYL-THIOPHENE-2-CARBOXYLIC ACID] | – | < 5
CCCC(=O)N(Cc1ccccc1C)c1cc(-c2ccccc2)sc1C(=O)O [Compound 433, 3-[BUTYRYL-(2-METHYL-BENZYL)- AMINO]-5-PHENYL-THIOPHENE-2- CARBOXYLIC ACID] | 5 to 20 | –
Cc1cccc(CN(C(=O)C(C)C)c2cc(-c3ccccc3)sc2C(=O)O)c1 [Compound 465, 3-[ISOBUTYRYL-(3-METHYL-BENZYL)- AMINO]-5-PHENYL-THIOPHENE-2- CARBOXYLIC ACID] | 5 to 20 | –
Cc1ccccc1S(=O)(=O)Nc1cc(-c2ccccc2)sc1C(=O)O [Compound 62, 5-PHENYL-3-(TOLUENE-2-SULFONYLAMINO)-THIOPHENE-2-CARBOXYLIC ACID] | – | < 5
Cc1ccccc1S(=O)(=O)Nc1cc(C(=O)c2ccccc2)sc1C(=O)O [Compound 82, 5-BENZOYL-3-(TOLUENE-2-SULFONYLAMINO)-THIOPHENE-2-CARBOXYLIC ACID] | – | 5 to 20
Cc1cc(S(=O)(=O)N(C)c2cc(-c3ccccc3)sc2C(=O)O)c(C)cc1Cl [Compound 5, 3-[(4-CHLORO-2,5-DIMETHYL-BENZENESULFONYL)-METHYL-AMINO]-5-PHENYL-THIOPHENE-2-CARBOXYLIC ACID] | – | 5 to 20
Cc1cc(C)c(C(=O)N(c2cc(-c3ccccc3)sc2C(=O)O)C(C)C)c(C)c1 [Compound 324, 3-[ISOPROPYL-(2,4,6-TRIMETHYL- BENZOYL)-AMINO]-5-PHENYL- THIOPHENE-2-CARBOXYLIC ACID] | – | 5 to 20
CC(C)C(=O)N(Cc1ccc(Cl)cc1)c1cc(-c2ccccc2)sc1C(=O)O [Compound 457, 3-[(4-CHLORO-BENZYL)-ISOBUTYRYL- AMINO]-5-PHENYL-THIOPHENE-2- CARBOXYLIC ACID] | 5 to 20 | –
C=CCN(C(=O)CCCCC)c1cc(-c2ccccc2)sc1C(=O)O [Compound 397, 3-(ALLYL-HEXANOYL-AMINO)-5-PHENYL- THIOPHENE-2-CARBOXYLIC ACID] | – | 5 to 20
Cc1ccc(S(=O)(=O)Nc2cc(-c3ccc(C#N)cc3)sc2C(=O)O)cc1 [Compound 290, 5-(4-CYANO-PHENYL)-3-(TOLUENE-4-SULFONYLAMINO)-THIOPHENE-2-CARBOXYLIC ACID] | – | 5 to 20
O=C(O)c1sc(-c2ccccc2)cc1NC(=O)N1CCN(c2cccc(Cl)c2)CC1 [Compound 160, 3-{[4-(3-CHLORO-PHENYL)-PIPERAZINE-1-CARBONYL]-AMINO}-5-PHENYL-THIOPHENE-2-CARBOXYLIC ACID] | – | 5 to 20
Cc1ccc(C(=O)N(C)c2cc(-c3cccc(C)c3)sc2C(=O)O)cc1 [Compound 268, 3-[METHYL-(4-METHYL-BENZOYL)-AMINO]-5-M-TOLYL-THIOPHENE-2-CARBOXYLIC ACID] | – | < 5
COCC(C)N(C(=O)c1ccc(Cl)cc1Cl)c1cc(-c2ccccc2)sc1C(=O)O (centres unmarked) [Compound 561, 3-[(2,4-DICHLORO-BENZOYL)-(2- METHOXY-1-METHYL-ETHYL)-AMINO]-5- PHENYL-THIOPHENE-2-CARBOXYLIC ACID] | < 5 | –
CC(C)C(=O)N(Cc1ccc(F)cc1F)c1cc(-c2ccccc2)sc1C(=O)O [Compound 485, 3-[(2,4-DIFLUORO-BENZYL)- ISOBUTYRYL-AMINO]-5-PHENYL- THIOPHENE-2-CARBOXYLIC ACID] | 5 to 20 | –
CC(C)CC(=O)N(Cc1ccccc1Cl)c1cc(-c2ccccc2)sc1C(=O)O [Compound 422, 3-[(2-CHLORO-BENZYL)-(3-METHYL- BUTYRYL)-AMINO]-5-PHENYL- THIOPHENE-2-CARBOXYLIC ACID] | 5 to 20 | –
Cc1ccc(S(=O)(=O)Nc2cc(-c3ccc(C#N)cc3)sc2C(=O)O)c(C)c1 [Compound 288, 5-(4-CYANO-PHENYL)-3-(2,4-DIMETHYL-BENZENESULFONYLAMINO)-THIOPHENE-2-CARBOXYLIC ACID] | – | < 5
CCCC(=O)N(Cc1ccc(F)cc1F)c1cc(-c2ccccc2)sc1C(=O)O [Compound 496, 3-[BUTYRYL-(2,4-DIFLUORO-BENZYL)- AMINO]-5-PHENYL-THIOPHENE-2- CARBOXYLIC ACID] | < 5 | –
Cc1ccccc1S(=O)(=O)Nc1cc(-c2ccc(-c3ccc(Br)cc3)cc2)sc1C(=O)O [Compound 124, 5-(4′-BROMO-BIPHENYL-4-YL)-3-(TOLUENE-2-SULFONYLAMINO)-THIOPHENE-2-CARBOXYLIC ACID] | – | < 5
O=C(O)c1sc(-c2ccc(F)cc2)cc1NS(=O)(=O)c1ccccn1 [Compound 133, 5-(4-FLUORO-PHENYL)-3-(PYRIDINE-2-SULFONYLAMINO)-THIOPHENE-2-CARBOXYLIC ACID] | – | < 5
CC1CCC(C(=O)N(c2cc(-c3ccccc3)sc2C(=O)O)C2COCOC2)CC1 (centres unmarked) [Compound 554, 3-[[1,3]DIOXAN-5-YL-(4-METHYL- CYCLOHEXANECARBONYL)-AMINO]-5- PHENYL-THIOPHENE-2-CARBOXYLIC ACID] | < 5 | –
C=CCN(C(=O)c1ccc(C)cc1)c1cc(-c2ccc(/C=C/C(=O)O)cc2)sc1C(=O)O [Compound 312, 3-[ALLYL-(4-METHYL-BENZOYL)-AMINO]- 5-[4-(2-CARBOXY-VINYL)-PHENYL]- THIOPHENE-2-CARBOXYLIC ACID] | – | < 5
CC(C)(C)c1ccc(CN(C(=O)C2CC2)c2cc(-c3ccccc3)sc2C(=O)O)cc1 [Compound 438, 3-[(4-TERT-BUTYL-BENZYL)- CYCLOPROPANECARBONYL-AMINO]-5- PHENYL-THIOPHENE-2-CARBOXYLIC ACID] | 5 to 20 | –
